{"source": "patent US20060281807A1", "about": "“Quassinoid compositions for the treatment of cancer and other proliferative diseases” (Tapestry Pharmaceuticals, Inc., priority 2005, published 2006)", "key": {"human CFU-GM": {"test_system": "human CFU-GM", "type": "cell-based", "settings": "1 mg/mL", "protocol": "A disk diffusion assay was performed to define the differential cell killing ability of 15-O-(3′-hydroxy-3′-isopropyl-4′-methylpentanoyl)bruceolide. Seven cell types were assayed: L1210 (ATCC CCL-219) (murine leukemia), CCRF-CEM (ATCC CCL-119) (human leukemia), Colon 38 (murine colon adenocarcinoma), HCT116 (ATCC CCL-247) (human colorectal carcinoma), H125 (human lung carcinoma). The murine and human granulocyte/macrophage progenitor cell line (CFU-GM), served as controls.\nFor CFU-GM cells, the femoral marrow of BD2F1 mice was flushed with MEM alpha (2 mL per femur). The cells were passed through an 18 gauge needle twice and the monodispersed suspension was counted. A total of 1.5×10^6 cells were plated in 3 mL of 0.3% agar with the addition of 10% L cell conditioned media, which provided colony stimulating factor, in MEM-alpha plus 10% BCS. For human CFU-GM, the cells were obtained from Poietic Technologies, Inc. (Gaithersburg, Md.) and washed twice with PBS before being titered and added to the agar mixture. The same cell number, culture conditions, and conditioning factors used with respect to the murine CFU-GM cells were used with the human cells, except that the cultures were assessed after 10 days of incubation.\nA 15 μl sample of each compound was dropped onto a 6.5 mm disk (Baxter filter disks). The disks were allowed to dry overnight and then placed close to the edge of a petri dish. Depending upon the cell type, the dishes were incubated for 7 to 10 days, and examined by an inverted stereo-microscope (10×) for measurement of the zone of inhibition. The zone of inhibition was measured from the edge of the filter disk to the beginning of normal-sized colony formation. The diameter of the filter disk, 6.5 mm, was arbitrarily taken as a zone of 200 units. Compounds that were selective for killing solid tumors, as compared to leukemia or normal cells (“solid tumor selective”) were defined as those compounds which produced a difference in zones between solid tumor cells and either normal or leukemia cells of at least 250 units. The results of this analysis are set forth in Table 4, which illustrates the relative diameters of the zones of inhibition by various drugs on the growth of the respective cell types at various drug dilutions."}, "[1]": {"test": "Pharmacokinetics, plasma and tumor concentration by HPLC in HCT-116 tumor-bearing SCID mice", "type": "in vivo", "settings": "for concentration in plasma / concentration in tumor: 2.25 mg/mouse intravenously", "protocol": "Samples from HCT-116 tumor-bearing SCID mice were analyzed via high performance liquid chromatography (HPLC) following administration of inventive compositions. […] At different time points following administration of the inventive compounds (up to 24 hours), individual mice were killed and both blood and tumor samples were removed for HPLC analysis.\nIn particular, a Waters 2690 Separation Module (Waters Corp., Milford, Mass.) connected to a Waters 2487 Dual wavelength absorbance detector controlled by Millennium32 v3.20 was used for separation, detection, data acquisition, integration and quantitation. An external standard calibration method was used to quantify the inventive compounds in each sample. A Symmetry Shield RP18 5 μm ([…]) analytical column (Waters Corp., Milford, Mass.) was used in the separation of each inventive compound. The column temperature was maintained at 30° C. 25 μl of each sample was injected per analytical run.\nThe mobile phase consisted of 99% water/1% acetonitrile as the initial gradient composition for the inventive composition. A gradient analysis from deionized water to acetonitrile at a flow rate of 1 mL/min for each tested compound is set forth in Tables 9 and 10. The detection wavelength for the inventive composition was 278 nm, and the retention time was 7.8 minutes.\nFor the in vivo pharmacokinetic trial, 15 mice were inoculated bilaterally and subcutaneously in the inguinal area with 10^7 tumor cells (by a 16-gauge needle), such as HCT-116 cells or trocar-implanted Colon 38 cells. Each of the compounds 15-O-(3′-hydroxy-3′-isopropyl-4′-methylpentanoyl)bruceolide and 15-(3-isopropyl-4-methyl-2-pentenoyl)-bruceolide was administered intravenously at the MTD in 0.25 mL via the tail vein. Each compound was administered to 10 animals when the tumors reached a measurable size (i.e., 80 to 300 mm^3) at a dose determined from the MTD study. The remaining five animals served as time-point controls. At prescribed times thereafter, one animal per time point was sacrificed, and blood and bilateral tumors were harvested for analysis of drug concentrations. Specifically, mice were sacrificed for pharmacological analysis at 1, 5, 15, 30, 60, 120, 240, 360 minutes and 12 and 24 hours following administration of the inventive compounds."}, "murine CFU-GM": {"test_system": "murine CFU-GM", "test": "Disk diffusion assay, zone of inhibition, murine CFU-GM", "type": "cell-based", "settings": "1 mg/mL"}, "[2]": {"test_system": "H125 (human lung carcinoma)", "test": "Disk diffusion assay, zone of inhibition, H125", "type": "cell-based", "settings": "1 mg/mL"}, "HuTu-80": {"test_system": "HuTu-80", "test": "MTT cytotoxicity assay (% kill), HuTu-80", "type": "cell-based, human", "settings": "1 h exposure", "protocol": "The following human tumor cell lines were obtained and cultured in sextuplicate microwells at 37° C. and 5% CO2 in humidified air and in 10% FBS in Eagles MEM: SK—N—FI, SK—N-AS, LS-174T, WiDr, HuTu-80, MCF7, NCI-AR, MES-Sar, and PL-45. Cells from each cell line were separately treated with an amount of one of the compounds of Formula I, II, or III (see Table 1). Cells were exposed to each compound (0.1 μg/mL or 1.0 μg/mL) for one hour or 24 hours, rinsed with drug-free media, and incubated for an additional five days. The number of viable cells after five days was measured using an MTT (3-(4,5-dimethylthiazol-2-yl)-2,5-diphenyltetrazolium bromide) assay (see, e.g., Mosmann, J. Immunol. Methods, 65(1-2), 55-63 (1983)).\nThe cytotoxicity of each drug was determined and expressed as the percent of cells killed (“% kill”)."}, "[3]": {"settings": "no dilution, 15 μl on disk, 6.5 mm = 200 units"}}, "note": "Where “and” joins values, the source holds several entries; their conditions need not be identical. Equal entries are not always repeated. Where two headings read alike, the source gives them in different places."}
{"compound": "COC(=O)[C@@]12OC[C@@]34C1[C@@H](OC(=O)C=C(C(C)C)C(C)C)C(=O)O[C@@H]3C[C@H]1C(C)=C(O)C(=O)C[C@]1(C)[C@H]4[C@@H](O)[C@@H]2O", "note": "(stereo partly shown) [15-O-(3′-isopropyl-4′-methyl-2′-pentenoyl)-bruceolide]", "values": [{"measurement": "zone of inhibition, human CFU-GM", "setting": "human CFU-GM; dilution 1/10", "result": ">1000", "unit": "units"}, {"measurement": "zone of inhibition, human CFU-GM", "setting": "human CFU-GM; dilution 1/100", "result": 550, "unit": "units"}, {"measurement": "concentration at 0.5 h", "setting": "[1]; SCID, in vivo, 0.5 hour time point, intravenous (FIG. 8: 0.075 mg/mouse)", "result": 100, "unit": "ng/mL"}, {"measurement": "concentration at 1 h", "setting": "[1]; SCID, in vivo, 1 hour time point, intravenous (FIG. 8: 0.075 mg/mouse), below sensitivity of the assay", "result": "< 50", "unit": "ng/mL"}, {"measurement": "level in the tumor, FIG. 8", "setting": "[1]; all time points, 0.075 mg/mouse intravenously, detection limit 0.05 μg/mL", "result": "below the detection limit"}, {"measurement": "concentration in tumor samples", "setting": "[1]; entire 24 hour sampling period, intravenous (FIG. 8: 0.075 mg/mouse)", "result": "below the sensitivity level of the assay"}, {"measurement": "concentration in vivo (plasma), FIG. 8", "setting": "[1]; time points 1 to 24 hours, 0.075 mg/mouse intravenously, below detection limit", "result": "< 50", "unit": "ng/mL"}, {"measurement": "zone of inhibition, murine CFU-GM", "setting": "murine CFU-GM; dilution 1/10", "result": 650, "unit": "units"}, {"measurement": "zone of inhibition, murine CFU-GM", "setting": "murine CFU-GM; dilution 1/100", "result": "350 units and 600 units"}, {"measurement": "zone of inhibition, murine CFU-GM", "setting": "murine CFU-GM; dilution 1/1000", "result": 0, "unit": "units"}, {"measurement": "zone of inhibition, H-125 M", "setting": "[2]; dilution 1/10", "result": 1100, "unit": "units"}, {"measurement": "zone of inhibition, H-125 M", "setting": "[2]; dilution 1/100", "result": 500, "unit": "units"}, {"measurement": "zone of inhibition, H-125 M", "setting": "[2]; dilution 1/1000", "result": 100, "unit": "units"}, {"measurement": "zone of inhibition, H-125 M", "setting": "[2]; [3]", "result": ">1000", "unit": "units"}]}
{"compound": "COC(=O)[C@@]12OC[C@@]34C1[C@@H](OC(=O)CC(O)(C(C)C)C(C)C)C(=O)O[C@@H]3C[C@H]1C(C)=C(O)C(=O)C[C@]1(C)[C@H]4[C@@H](O)[C@@H]2O", "note": "(stereo partly shown) [15-O-(3′-hydroxy-3′-isopropyl-4′-methylpentanoyl)bruceolide]", "values": [{"measurement": "zone of inhibition, human CFU-GM", "setting": "human CFU-GM; dilution 1/10", "result": 900, "unit": "units"}, {"measurement": "zone of inhibition, human CFU-GM", "setting": "human CFU-GM; dilution 1/100", "result": 600, "unit": "units"}, {"measurement": "% kill, HuTu-80", "setting": "HuTu-80; 0.1 μg/mL", "result": 0, "unit": "%"}, {"measurement": "% kill, HuTu-80", "setting": "HuTu-80; 1.0 μg/mL", "result": 7, "unit": "%"}, {"measurement": "survival of mouse designated for analysis", "setting": "[1]; 24 hours post administration, 2.25 mg/mouse intravenously (above the MTD)", "result": "did not survive"}, {"measurement": "concentration in plasma", "setting": "[1]; one hour post administration", "result": "approximately 7 μg/mL"}, {"measurement": "concentration in tumor", "setting": "[1]; one hour post administration", "result": "approximately 7 μg/mL"}, {"measurement": "concentration in plasma", "setting": "[1]; six hours post administration", "result": 100, "unit": "ng/mL"}, {"measurement": "concentration in tumor", "setting": "[1]; six hours post administration", "result": 800, "unit": "ng/mL"}, {"measurement": "concentration in plasma", "setting": "[1]; two hours post administration", "result": 1500, "unit": "ng/mL"}, {"measurement": "concentration in tumor", "setting": "[1]; two hours post administration", "result": "approximately 4 μg/mL"}, {"measurement": "zone of inhibition, murine CFU-GM", "setting": "murine CFU-GM; dilution 1/10", "result": 50, "unit": "units"}, {"measurement": "zone of inhibition, murine CFU-GM", "setting": "murine CFU-GM; dilution 1/100", "result": "300 units and 200 units"}, {"measurement": "zone of inhibition, murine CFU-GM", "setting": "murine CFU-GM; dilution 1/400", "result": 100, "unit": "units"}, {"measurement": "zone of inhibition, murine CFU-GM", "setting": "murine CFU-GM; dilution 1/1000", "result": 0, "unit": "units"}, {"measurement": "zone of inhibition, H-125 M", "setting": "[2]; dilution 1/1000", "result": 0, "unit": "units"}, {"measurement": "zone of inhibition, H-125 M", "setting": "[2]; [3]", "result": ">1000", "unit": "units"}]}
